Where a name gives a salt, the structure may show the parent alone.
Experiments:
CES2 = target: T1, CES2 (Homo sapiens, UniProt O00748); details: higher affinity than CES1; cited from earlier work
T1 sequence (O00748 27-559): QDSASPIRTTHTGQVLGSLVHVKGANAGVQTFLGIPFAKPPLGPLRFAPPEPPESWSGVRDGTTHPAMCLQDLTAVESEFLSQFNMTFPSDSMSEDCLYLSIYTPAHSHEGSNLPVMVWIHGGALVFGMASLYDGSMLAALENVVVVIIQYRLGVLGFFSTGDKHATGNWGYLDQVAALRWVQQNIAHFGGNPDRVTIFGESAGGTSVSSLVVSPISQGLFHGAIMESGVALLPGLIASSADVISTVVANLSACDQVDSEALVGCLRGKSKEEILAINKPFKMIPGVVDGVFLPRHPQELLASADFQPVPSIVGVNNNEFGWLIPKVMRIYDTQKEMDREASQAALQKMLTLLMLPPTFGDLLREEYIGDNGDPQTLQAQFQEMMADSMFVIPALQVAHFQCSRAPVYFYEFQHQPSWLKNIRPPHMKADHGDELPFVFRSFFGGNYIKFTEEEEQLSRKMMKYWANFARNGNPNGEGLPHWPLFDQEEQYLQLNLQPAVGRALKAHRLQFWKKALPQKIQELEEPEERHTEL

[1] = target: butyrylcholinesterase (hBChE) (Homo sapiens, UniProt P06276); details: higher activity than CES; cited from earlier work
butyrylcholinesterase (hBChE), sequence (P06276 29-602): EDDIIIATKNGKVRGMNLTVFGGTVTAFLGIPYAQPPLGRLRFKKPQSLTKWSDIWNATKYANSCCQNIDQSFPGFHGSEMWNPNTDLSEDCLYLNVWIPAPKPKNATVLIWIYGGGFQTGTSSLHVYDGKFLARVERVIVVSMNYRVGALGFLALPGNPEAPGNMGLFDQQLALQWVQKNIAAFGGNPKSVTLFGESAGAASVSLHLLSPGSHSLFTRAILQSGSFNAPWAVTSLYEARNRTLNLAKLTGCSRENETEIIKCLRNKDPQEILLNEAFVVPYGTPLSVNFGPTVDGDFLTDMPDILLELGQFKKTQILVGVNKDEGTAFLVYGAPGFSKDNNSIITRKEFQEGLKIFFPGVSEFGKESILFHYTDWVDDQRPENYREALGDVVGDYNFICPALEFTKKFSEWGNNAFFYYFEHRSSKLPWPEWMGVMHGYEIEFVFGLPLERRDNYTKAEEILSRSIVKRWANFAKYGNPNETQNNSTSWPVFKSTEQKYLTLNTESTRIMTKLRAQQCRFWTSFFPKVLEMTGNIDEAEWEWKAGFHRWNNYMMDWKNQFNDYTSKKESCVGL

[2] = cited from earlier work
Panc 02.03 cells = test: Panc 02.03 pancreatic cancer xenograft, average tumor volumes in nude/nude mice; type: in vivo; details: single agent, 30 mg/kg i.p. BID 2x/week; day 22
Method: Immunocompromised nude/nude mice are inoculated in the right hind flank with cells harboring a KRas G12D mutation. […] The first group is administered vehicle only. […] Tumor volumes are measured using a caliper every two-three days and tumor volumes are calculated by the formula: […].

CCc1c2c(nc3ccc(OC(=O)N4CCC(N5CCCCC5)CC4)cc13)-c1cc3c(c(=O)n1C2)COC(=O)[C@]3(O)CC [Irinotecan, (S)-4,11-diethyl-3,4,12,14-tetrahydro-4-hydroxy-3,14-dioxo-1H-pyrano[3′,4′:6,7]indolizino[1,2-β]quinolin-9-yl ester[1,4′-bipiperidine]-1′-carboxylic acid trihydrate monohydrochloride]
affinity for irinotecan, CES2 relative to CES1 (CES2): 12.5 fold | activity for irinotecan, butyrylcholinesterase relative to CES [1]: 6 fold | fraction of pro-drug hydrolyzed into active metabolite SN-38 ([2]; in vivo): 2-5%

C#Cc1c(F)ccc2cc(O)cc(-c3ncc4c(N5C[C@H]6CC[C@@H](C5)N6)nc(OC[C@@]56CCCN5C[C@H](F)C6)nc4c3F)c12 [MRTX1133, 4-(4-((1R,5S)-3,8-diazabicyclo[3.2.1]octan-3-yl)-8-fluoro-2-(((2R,7aS)-2-fluorohexahydro-1Hpyrrolizin-7a-yl)methoxy)pyrido[4,3-d]pyrimidin-7-yl)-5-ethynyl-6-fluoronaphthalen-2-ol]
tumor growth (Panc 02.03 cells): 72%

CCc1c2c(nc3ccc(O)cc13)-c1cc3c(c(=O)n1C2)COC(=O)[C@]3(O)CC [SN-38, ethyl-10-hydroxy-camptothecin]
time to peak plasma concentration ([2]; after infusion): ≤ 2 h | distribution half-life ([2]; in vivo): approximately 8 min
